{
  "source": "paper PMC9043826",
  "about": "“Dalpulapans A–E from the roots of Dalbergia stipulacea” (RSC Advances, 2021)",
  "format_in_all_cases": "cell-based",
  "key": {"[1]": {"system": "HeLa (cervical cancer cells)", "test": "MTT cytotoxicity assay against HeLa cells", "conditions": "Homo sapiens", "description": "(§1) All isolated compounds, except 12, were evaluated for cytotoxicity against A549 (lung cancer cells), HeLa (cervical cancer cells) and Vero cells using the MTT assay.\n(§2) MTT (3-(4,5-dimethylthiazol-2-yl)-2,5-diphenyltetrazolium bromide) assay was performed to evaluate the cytotoxic effect of the compounds. The procedure has been explained in a previous report.[14] In brief, all cells were cultured in RPMI 1640 medium supplemented with 10% fetal bovine serum, penicillin (100 U mL^−1) and streptomycin (100 μg mL^−1) (Gibco-BRL, USA) and incubated at 37 °C in a humidified atmosphere of 5% CO2. For preliminary testing, cells were exposed to the selected compounds at a concentration of 100 μg mL^−1 for 24, 48 and 72 hours. […] Control groups were treated with a solvent (a mixture of DMSO and ethanol; 1 : 1). After incubation, the medium was replaced with 110 μL of fresh medium containing MTT (0.5 mg mL^−1 in PBS) (Sigma Chemical Co., St. Louis, MO, USA) and incubated for 2 h. […] The absorbance of formazan was measured with a microplate reader (Bio-Rad Laboratories, USA) at the wavelength of 550 nm using 655 nm as a reference wavelength. […] The percentage of viable cells which corresponds to the production of formazan was calculated as previously described (Kumnerdkhonkaen et al. 2018).% Cell viability = [sample (A550 − A655)/control (A550 − A655)] × 100"}, "[2]": {"system": "A549 (lung cancer cells)", "test": "MTT cytotoxicity assay against A549 cells", "conditions": "Homo sapiens", "description": "as §1, §2"}, "[3]": {"system": "Vero cells (kidney of African green monkey cells; normal cells)", "test": "MTT cytotoxicity assay against Vero (normal) cells", "conditions": "Chlorocebus sabaeus", "description": "as §1, §2"}},
  "data": [
    {"compound": "CC(C)=CCC/C(C)=C/Cc1c(O)ccc2c1OC[C@H]1c3cc4c(cc3O[C@@H]21)OCO4", "note": "[Compound 6, R,R-velucarpin A]", "values": [
      {"measurement": "IC50", "setting": "[1]", "result": "10.9 ± 0.42", "unit": "µM"},
      {"measurement": "IC50", "setting": "[2]", "result": "14.6 ± 1.31", "unit": "µM"},
      {"measurement": "IC50", "setting": "[3]", "result": "29.2 ± 1.16", "unit": "µM"}
    ]}
  ]
}
